{"source": "paper PMC12190436", "about": "“5-Ene-2-arylaminothiazol-4(5H)-ones Induce Apoptosis in Breast Cancer Cells” (Cells, 2025)", "key": {"[1]": {"system": "MCF-7 cells", "experiment": "Acridine orange/ethidium bromide staining, morphology", "type": "cell-based, human", "conditions": "5 µM, 24 h, MCF-7, AO/EB staining", "protocol": "To display morphological changes in the MCF-7 cells after 24 h of treatment by lead compound Les-6416 and the positive control doxorubicin, we performed acridine orange and ethidium bromide staining. MCF-7 cells were seeded in 6-well plates at 1 × 10^5 cells per well in 2 mL medium, followed by incubation for 24 h. Afterwards, the cells were treated with lead compound Les-6416 at a concentration equal to 5 µM and DOX in a concentration equal to 0.5 µM. Next, cells were washed with 1 mL of PBS per well. Subsequently, double staining was performed using 10 µL of AO and EB, incubated at room temperature for 10 min. After that, cells were washed with PBS. Images were obtained with the use of a Nikon ECLIPSE Ti fluorescence microscope (Nikon, Tokyo, Japan). Images were analyzed using ImageJ software version 1.54k (Bethesda, MD, USA).\nTo analyze morphological changes in MCF-7 cells after 24 h of treatment, we performed the double staining with acridine orange and ethidium bromide. This method provides the capability to observe different stages of cell death depending on cell membrane integrity and chromatin condensation. Green fluorescence can be observed due to acridine orange staining, that penetrates all cells, while red coloring is contributed to ethidium bromide, which can only penetrate cells with injured cell membranes. […]"}, "[2]": {"system": "cytochrome C", "experiment": "cytochrome C concentration, SimpleStep ELISA", "type": "cell-based, human", "conditions": "5 µM, 24 h, MCF-7", "protocol": "(§1) To determine the effects of the new 4-thiazolidinone derivatives and the reference drug on the concentration of p53 and cytochrome C in MCF-7 cell lysates or supernatants after 24 h of treatment, highly sensitive SimpleStep ELISA (enzyme-linked immunosorbent assay) kits (Abcam, Cambridge, UK) were applied. The cells were collected and washed thrice with cold PBS and centrifuged at 1000× g for 5 min at 4 °C. Next, the cells were suspended in lysis buffer to acquire cell lysates. Concurrently, the supernatants, acquired after centrifugation, were frozen immediately at −80 °C. The standards, samples, and antibody cocktail were added to the appropriate microtiter plate wells, followed by 1 h incubation at room temperature. The content of microplate wells was extracted, and the wells were washed thrice. Afterwards, a TMB development solution was added to each well. The enzyme–substrate reaction was terminated with a stop solution. The change in color was assessed by UV-VIS Helios Gamma (Unicam/ThermoFisher Scientific Inc., Cleveland, OH, USA) at 450 ± 2 nm wavelength.\n(§2) Both p53 and cytochrome C proteins play pivotal roles in the process of apoptosis. For this reason, concentrations of the mentioned proteins were measured in MCF-7 cells after 24 h treatment with the tested compounds (Les-6416, Les-6418, Les-6381, Les-6423, Les-6424) in concentrations of 5 µM."}, "[3]": {"system": "p53", "experiment": "p53 concentration, SimpleStep ELISA", "type": "cell-based, human", "conditions": "5 µM, 24 h, MCF-7", "protocol": "as §1, §2"}, "[4]": {"system": "K-562", "type": "cell-based"}, "[5]": {"system": "IGROV1", "type": "cell-based"}, "[6]": {"system": "SF-268", "type": "cell-based"}, "[7]": {"system": "MDA-MB-231/ATCC", "type": "cell-based"}, "[8]": {"system": "UACC-257", "type": "cell-based"}, "[9]": {"system": "A498", "type": "cell-based"}, "[10]": {"system": "M14", "type": "cell-based"}, "[11]": {"system": "SK-MEL-28", "type": "cell-based"}, "[12]": {"system": "HS 578T", "type": "cell-based"}, "[13]": {"system": "CNS Cancer", "type": "cell-based"}, "[14]": {"system": "HCC -2998", "type": "cell-based"}, "[15]": {"system": "CAKI-1", "type": "cell-based"}, "[16]": {"system": "OVCAR-8", "type": "cell-based"}, "[17]": {"system": "Breast Cancer", "type": "cell-based"}, "[18]": {"system": "ACHN", "type": "cell-based"}, "[19]": {"conditions": "Homo sapiens, 48 h, read-out: LC50 (the source's name)"}}, "data": [{"smiles": "COc1cc(NC2=NC(=O)C(=Cc3ccc4cc[nH]c4c3)S2)cc(OC)c1OC", "note": "[Les-6416, 5-((1H-Indol-6-yl)methylene)-2-((3,4,5-trimethoxyphenyl)amino)thiazol-4(5H)-one]", "values": [{"measurement": "morphological changes", "setting": "[1]", "result": "cell shrinkage and chromatin condensation"}, {"measurement": "Concentration of cytochrome c", "setting": "[2]", "result": "4.56 ± 0.85", "unit": "ng/mL"}, {"measurement": "Concentration of p53", "setting": "[3]", "result": "2.27 ± 0.55", "unit": "ng/mL"}]}, {"smiles": "COc1cc(NC2=NC(=O)C(=Cc3c[nH]c4ccccc34)S2)cc(OC)c1OC", "note": "[Les-6418, 5-((1H-Indol-3-yl)methylene)-2-((3,4,5-trimethoxyphenyl)amino)thiazol-4(5H)-one]", "values": [{"measurement": "GI50", "setting": "[4]; Homo sapiens, K562, K-562, 48 h", "result": 0.526, "unit": "µM"}, {"measurement": "CC50", "setting": "[4]; Homo sapiens, K562, K-562, 48 h, read-out: LC50 (the source's name)", "result": "> 100", "unit": "µM"}, {"measurement": "TGI", "setting": "[4]; K-562, 48 h", "result": 31.1, "unit": "µM"}, {"measurement": "SI (TGI)", "setting": "[4]; K-562, MG_MID_60/value", "result": 0.60}, {"measurement": "GI50", "setting": "[5]; Homo sapiens, IGROV-1, IGROV1, 48 h", "result": 4.91, "unit": "µM"}, {"measurement": "CC50", "setting": "[5]; Homo sapiens, IGROV-1, IGROV1, 48 h, read-out: LC50 (the source's name)", "result": 57.2, "unit": "µM"}, {"measurement": "TGI", "setting": "[5]; IGROV1, 48 h", "result": 21.6, "unit": "µM"}, {"measurement": "SI (TGI)", "setting": "[5]; IGROV1, MG_MID_60/value", "result": 0.86}, {"measurement": "GI50", "setting": "[6]; Homo sapiens, SF-268, 48 h", "result": 3.56, "unit": "µM"}, {"measurement": "CC50", "setting": "[6]; Homo sapiens, SF-268, 48 h, read-out: LC50 (the source's name)", "result": 81.3, "unit": "µM"}, {"measurement": "TGI", "setting": "[6]; SF-268, 48 h", "result": 20.0, "unit": "µM"}, {"measurement": "SI (TGI)", "setting": "[6]; SF-268, MG_MID_60/value", "result": 0.93}, {"measurement": "TGI", "setting": "[7]; 48 h", "result": 18.8, "unit": "µM"}, {"measurement": "GI50", "setting": "[7]; Homo sapiens, 48 h", "result": 4.77, "unit": "µM"}, {"measurement": "CC50", "setting": "[7]; [19]", "result": 55.2, "unit": "µM"}, {"measurement": "SI (TGI)", "setting": "[7]; MG_MID_60/value", "result": 0.99}, {"measurement": "GI50", "setting": "[8]; Homo sapiens, UACC-257, 48 h", "result": 5.18, "unit": "µM"}, {"measurement": "CC50", "setting": "[8]; Homo sapiens, UACC-257, 48 h, read-out: LC50 (the source's name)", "result": 52.7, "unit": "µM"}, {"measurement": "TGI", "setting": "[8]; UACC-257, 48 h", "result": 21.1, "unit": "µM"}, {"measurement": "SI (TGI)", "setting": "[8]; UACC-257, MG_MID_60/value", "result": 0.88}, {"measurement": "Growth %", "setting": "[9]; A498, 10 μM, one dose, 48 h", "result": "−76.12", "unit": "%"}, {"measurement": "TGI", "setting": "[9]; A498, 48 h", "result": 24.6, "unit": "µM"}, {"measurement": "SI (TGI)", "setting": "[9]; A498, MG_MID_60/value", "result": 0.76}, {"measurement": "GI50", "setting": "[9]; Homo sapiens, A498, 48 h", "result": 10.2, "unit": "µM"}, {"measurement": "CC50", "setting": "[9]; Homo sapiens, A498, 48 h, read-out: LC50 (the source's name)", "result": 59.6, "unit": "µM"}, {"measurement": "GI50", "setting": "[10]; Homo sapiens, M14, 48 h", "result": 2.02, "unit": "µM"}, {"measurement": "CC50", "setting": "[10]; Homo sapiens, M14, 48 h, read-out: LC50 (the source's name)", "result": 55.6, "unit": "µM"}, {"measurement": "TGI", "setting": "[10]; M14, 48 h", "result": 15.9, "unit": "µM"}, {"measurement": "SI (TGI)", "setting": "[10]; M14, MG_MID_60/value", "result": 1.17}, {"measurement": "GI50", "setting": "[11]; Homo sapiens, SK-MEL-28, 48 h", "result": 6.07, "unit": "µM"}, {"measurement": "CC50", "setting": "[11]; Homo sapiens, SK-MEL-28, 48 h, read-out: LC50 (the source's name)", "result": 49.9, "unit": "µM"}, {"measurement": "TGI", "setting": "[11]; SK-MEL-28, 48 h", "result": 21.0, "unit": "µM"}, {"measurement": "SI (TGI)", "setting": "[11]; SK-MEL-28, MG_MID_60/value", "result": 0.89}, {"measurement": "TGI", "setting": "[12]; 48 h", "result": 11.9, "unit": "µM"}, {"measurement": "GI50", "setting": "[12]; Homo sapiens, 48 h", "result": 2.33, "unit": "µM"}, {"measurement": "CC50", "setting": "[12]; [19]", "result": "> 100", "unit": "µM"}, {"measurement": "SI (TGI)", "setting": "[12]; MG_MID_60/value", "result": 1.56}, {"measurement": "MG_MID TGI", "setting": "[13]; CNS Cancer subpanel mean", "result": 14.0, "unit": "µM"}, {"measurement": "SI (MG_MID TGI)", "setting": "[13]; CNS Cancer subpanel, MG_MID_60/value", "result": 1.33}, {"measurement": "GI50", "setting": "[13]; Homo sapiens, CNS Cancer subpanel mean, read-out: MG_MID GI50", "result": 3.24, "unit": "µM"}, {"measurement": "CC50", "setting": "[13]; Homo sapiens, CNS Cancer subpanel mean, read-out: MG_MID LC50", "result": 46.1, "unit": "µM"}, {"measurement": "TGI", "setting": "[14]; HCC -2998, 48 h", "result": 20.7, "unit": "µM"}, {"measurement": "SI (TGI)", "setting": "[14]; HCC -2998, MG_MID_60/value", "result": 0.90}, {"measurement": "GI50", "setting": "[14]; Homo sapiens, HCC -2998, 48 h", "result": 6.36, "unit": "µM"}, {"measurement": "CC50", "setting": "[14]; Homo sapiens, HCC -2998, 48 h, read-out: LC50 (the source's name)", "result": 47.8, "unit": "µM"}, {"measurement": "TGI", "setting": "[15]; CAKI-1, 48 h", "result": 10.3, "unit": "µM"}, {"measurement": "SI (TGI)", "setting": "[15]; CAKI-1, MG_MID_60/value", "result": 1.81}, {"measurement": "GI50", "setting": "[15]; Homo sapiens, CAKI-1, 48 h", "result": 0.84, "unit": "µM"}, {"measurement": "CC50", "setting": "[15]; Homo sapiens, CAKI-1, 48 h, read-out: LC50 (the source's name)", "result": 33.1, "unit": "µM"}, {"measurement": "GI50", "setting": "[16]; Homo sapiens, OVCAR-8, 48 h", "result": 10.6, "unit": "µM"}, {"measurement": "LC50 (50% lethal concentration)", "setting": "[16]; Homo sapiens, OVCAR-8, 48 h", "result": 70.1, "unit": "µM"}, {"measurement": "TGI", "setting": "[16]; OVCAR-8, 48 h", "result": 27.2, "unit": "µM"}, {"measurement": "SI (TGI)", "setting": "[16]; OVCAR-8, MG_MID_60/value", "result": 0.68}, {"measurement": "MG_MID TGI", "setting": "[17]; Breast Cancer subpanel mean", "result": 13.2, "unit": "µM"}, {"measurement": "SI (MG_MID TGI)", "setting": "[17]; Breast Cancer subpanel, MG_MID_60/value", "result": 1.41}, {"measurement": "GI50", "setting": "[17]; Homo sapiens, Breast Cancer subpanel mean, read-out: MG_MID GI50", "result": 2.32, "unit": "µM"}, {"measurement": "CC50", "setting": "[17]; Homo sapiens, Breast Cancer subpanel mean, read-out: MG_MID LC50", "result": 55.8, "unit": "µM"}, {"measurement": "TGI", "setting": "[18]; 48 h", "result": 12.0, "unit": "µM"}, {"measurement": "GI50", "setting": "[18]; Homo sapiens, 48 h", "result": 3.2, "unit": "µM"}, {"measurement": "CC50", "setting": "[18]; [19]", "result": 36.1, "unit": "µM"}, {"measurement": "SI (TGI)", "setting": "[18]; MG_MID_60/value", "result": 1.55}]}]}
